Measured values taken from patent US10392422B2, “Macrocyclic broad spectrum antibiotics” (priority 2014, dated 2019).
In brackets after ≈: the same amount, converted by molar mass. Read-outs that look alike come from different tables or passages of the source.

Legend:
Assay in all cases: MIC, broth micro-dilution technique (CLSI)
MRSA COL (NRS100) = format: cell-based, Staphylococcus aureus; settings: for MIC: Staphylococcus aureus, 22 h, read-out: MIC (μg/mL) (COL)
Outline: (§1)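 CLSI broth microdilution in cation-adjusted Mueller Hinton broth with 0.002% v/v Tween-80. Compounds were serially 2-fold diluted over 10 concentrations from 64 μg/ml, or from 4 μg/mL in a modified protocol; inoculum at final OD600 0.0005, incubated 35° C for 22 hours.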

[1] = test system: Escherichia coli MC4100 harboring the IMP4213; format: cell-based; settings: for MIC: Escherichia coli, 22 h
Outline: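 Susceptibility is tested by broth micro-dilution per CLSI, using ten serial 2-fold dilutions beginning at 64 μg/ml or, in a modified version, 4 μg/mL. The E. coli MC4100 strain carries an imp allele raising outer-membrane permeability.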

[2] = test system: Methicillin Resistant Staphylococcus aureus strain USA 300 (NRS384); format: cell-based; settings: for MIC: Staphylococcus aureus, 22 h, read-out: MIC (μg/mL) S. aureus
Outline: as §1

[3] = read-out: MIC (μg/mL) E. coli, Table 1 protocol: serial 2-fold dilutions starting from 64 μg/ml, 35° C., 22 hours
[4] = Table 1 protocol: serial 2-fold dilutions starting from 64 μg/ml, 35° C., 22 hours
[5] = Table 2 modified protocol: serial 2-fold dilutions starting from 4 μg/mL, 35° C., 22 hours
[6] = read-out: MIC (μg/mL) E. coli, Table 2 modified protocol: serial 2-fold dilutions starting from 4 μg/mL, 35° C., 22 hours

| Structure (SMILES) | MIC (MRSA COL (NRS100)) [µg/mL] | MIC [1, 3] [µg/mL] | MIC [2] [µg/mL] | MIC (MRSA COL (NRS100); [4]) [µg/mL] | MIC [2, 4] [µg/mL] | also measured |
| --- | --- | --- | --- | --- | --- | --- |
| CCOS(=O)(=O)/C=C/[C@H](C)NC(=O)[C@@H]1Cc2ccc(O)c(c2)-c2cc(ccc2O)[C@H](N(C)C(=O)[C@H](CCCCN)NC(=O)c2ccc(-c3ccc(Cl)cc3)cc2)C(=O)N[C@@H](C)C(=O)N1 [Compound 248] | 4 (≈ 4.36 µM) | > 64 | 21 (≈ 22.9 µM) | – | – | – |
| CC(NC(=O)[C@@H]1Cc2ccc(O)c(c2)-c2cc(ccc2O)[C@H](N(C)C(=O)[C@H](CCCCN)NC(=O)c2ccc(-c3ccc(Cl)cc3)cc2)C(=O)N[C@@H](C)C(=O)N1)C(=O)c1ncco1 (stereo partly drawn) [Compound 188] | – | 11 (≈ 12.5 µM) | – | 4 (≈ 4.55 µM) | 16 (≈ 18.2 µM) | – |
| C[C@@H]1NC(=O)[C@@H](N(C)C(=O)[C@H](CCCCN)NC(=O)c2ccc(-c3ccc(Cl)cc3)cc2)c2ccc(O)c(c2)-c2cc(ccc2O)C[C@@H](C(=O)N[C@@H](C)C(=O)N2CCCC23CCNC3=O)NC1=O (stereo partly drawn) [Compound 161] | – | – | – | – | – | MIC (μg/mL) (COL) (MRSA COL (NRS100); [4]): 32 µg/mL (≈ 33.7 µM); MIC (μg/mL) E. coli [1, 4]: 64 µg/mL (≈ 67.4 µM); MIC (μg/mL) S. aureus [2, 4]: 64 µg/mL (≈ 67.4 µM) |
| C[C@@H]1NC(=O)[C@@H](N(C)C(=O)[C@H](CCCCN)NS(=O)(=O)c2ccc(-c3ccc(Cl)cc3)cc2)c2ccc(O)c(c2)-c2cc(ccc2O)C[C@@H](C(=O)N[C@@H](C)C(=O)N2CCC[C@H]2C(N)=O)NC1=O [Compound 225] | – | > 64 | – | 6 (≈ 6.25 µM) | 23 (≈ 24 µM) | – |
| CNCCNCCOc1ccc2cc1-c1cc(ccc1O)C[C@@H](C(=O)N[C@@H](C)C(C)=O)NC(=O)[C@H](C)NC(=O)[C@H]2N(C)C(=O)[C@H](CCCCN)NC(=O)c1ccc(-c2ccc(Cl)cc2)cc1 [Compound 204] | – | 8 (≈ 8.64 µM) | – | 1 (≈ 1.08 µM) | 11 (≈ 11.9 µM) | – |
| C[C@@H]1NC(=O)[C@@H](N(C)C(=O)[C@H](CCCCN)NC(=O)c2ccc(-c3ccc(Cl)cc3)cc2)c2ccc(O)c(c2)-c2cc(ccc2O)C[C@@H](C(=O)NCC(=O)c2ncc[nH]2)NC1=O [Compound 245] | – | – | – | – | – | MIC (MRSA COL (NRS100); [5]): 2 µg/mL (≈ 2.32 µM); MIC [1, 6]: > 4 µg/mL; MIC [2, 5]: 4 µg/mL (≈ 4.63 µM) |
| C[C@@H]1NC(=O)[C@@H](N(C)C(=O)[C@H](CCCCN)NC(=O)c2ccc(-c3ccc(Cl)cc3)cc2)c2ccc(O)c(c2)-c2cc(ccc2O)C[C@@H](C(=O)N[C@@H](C)C(=O)N2CSC[C@@H]2C(N)=O)NC1=O [Compound 175] | – | 32 (≈ 34 µM) | – | 32 (≈ 34 µM) | > 64 | – |
| C[C@@H]1NC(=O)[C@@H](N(C)C(=O)[C@H](CCCCN)NC(=O)c2ccc(-c3ccc(Cl)cc3)cc2)c2ccc(O)c(c2)-c2cc(ccc2O)C[C@@H](C(=O)N[C@@H](C)C(=O)N2C[C@@H](O)C[C@H]2C(N)=O)NC1=O [Compound 177] | – | 64 (≈ 68.1 µM) | – | 4 (≈ 4.26 µM) | 16 (≈ 17 µM) | – |
| CCCCCCCCCC(=O)N[C@@H](CO)C(=O)N(C)[C@@H]1C(=O)N[C@@H](C)C(=O)N[C@H](C(=O)N[C@@H](C)C(C)=O)Cc2ccc(OCCN)c(c2)-c2cc1ccc2OCCN.O=CO [Compound 264] | – | – | – | – | – | MIC (μg/mL) (COL) (MRSA COL (NRS100); [5]): 0.75 µg/mL; MIC (μg/mL) E. coli [1, 5]: >4 µg/mL; MIC (μg/mL) S. aureus [2, 5]: 2 µg/mL |
| C[C@H](NC(=O)[C@@H]1Cc2ccc(O)c(c2)-c2cc(ccc2O)[C@H](N(C)C(=O)[C@H](CCCCN)NC(=O)c2ccc(-c3ccc(Cl)cc3)cc2)C(=O)N[C@@H](C)C(=O)N1)C(=O)Cc1c[nH]nn1 [Compound 192] | – | 64 (≈ 71.7 µM) | – | 2 (≈ 2.24 µM) | 11 (≈ 12.3 µM) | – |
| CCCCc1ccc(-c2ccc(C(=O)N[C@@H](CCCCN)C(=O)N(C)[C@@H]3C(=O)N[C@@H](C)C(=O)N[C@H](C(=O)NCc4nnn[nH]4)Cc4ccc(O)c(c4)-c4cc3ccc4OCCN)cc2)cc1 [Compound 329] | 2 (≈ 2.22 µM) | – | > 4 | – | – | MIC ([1]; read-out: MIC (μg/mL) E. coli): 0.38 µg/mL (≈ 0.421 µM) |
| CC(=O)[C@H](C)NC(=O)[C@@H]1Cc2ccc(O)c(c2)-c2cc(ccc2OCCCN)[C@H](N(C)C(=O)[C@H](CCCCN)NC(=O)c2ccc(-c3ccc(Cl)cc3)cc2)C(=O)N[C@@H](C)C(=O)N1 [Compound 202] | – | 8 (≈ 9.07 µM) | – | 0.5 (≈ 0.567 µM) | 2.8 (≈ 3.17 µM) | – |
| C[C@@H]1NC(=O)[C@@H](N(C)C(=O)[C@H](CCCCN)NC(=O)c2ccc(-c3ccc(Cl)cc3)cc2)c2ccc(O)c(c2)-c2cc(ccc2O)C[C@@H](C(=O)N[C@@H](C)C(=O)N(C)[C@@H](CO)C(N)=O)NC1=O [Compound 198] | – | 16 (≈ 17.3 µM) | – | 2 (≈ 2.16 µM) | 13 (≈ 14 µM) | – |
| CC(=O)[C@H](C)NC(=O)[C@@H]1Cc2ccc(OCCO)c(c2)-c2cc(ccc2OCCN)[C@H](N(C)C(=O)[C@H](CCCCN)NC(=O)c2ccc(-c3ccc(Cl)cc3)cc2)C(=O)N[C@@H](C)C(=O)N1 [Compound 330] | 1 (≈ 1.1 µM) | – | 3 (≈ 3.29 µM) | – | – | MIC [1, 6]: > 4 µg/mL |
| C[C@H](NC(=O)[C@@H]1Cc2ccc(O)c(c2)-c2cc(ccc2O)[C@H](N(C)C(=O)[C@H](CCCCN)NC(=O)c2ccc(-c3ccc(Cl)cc3)cc2)C(=O)N[C@@H](C)C(=O)N1)C(=O)CCc1cc[nH]n1 [Compound 130] | – | > 64 | – | 8 (≈ 8.84 µM) | 16 (≈ 17.7 µM) | – |
| C[C@@H]1NC(=O)[C@@H](N(C)C(=O)[C@H](CCCCN)NC(=O)c2ccc(-c3ccc(Cl)cc3)cc2)c2ccc(OCCN)c(c2)-c2cc(ccc2O)C[C@@H](C(=O)O)NC1=O [Compound 312] | 3 (≈ 3.75 µM) | 3 (≈ 3.75 µM) | 24 (≈ 30 µM) | – | – | – |
| CCCCCCCCc1ccc(C(=O)N[C@@H](CCCN)C(=O)N(C)[C@@H]2C(=O)N[C@@H](C)C(=O)N[C@H](C(=O)N[C@@H](C)B3O[C@@H]4C[C@@H]5C[C@@H](C5(C)C)[C@]4(C)O3)Cc3ccc(OCCCN)c(c3)-c3cc2ccc3OCCCN)cc1 [Compound 323] | 0.031 (≈ 0.0292 µM) | – | 0.13 (≈ 0.122 µM) | – | – | MIC [1, 6]: 0.063 µg/mL (≈ 0.0593 µM) |
| C[C@@H]1NC(=O)[C@@H](N(C)C(=O)[C@H](CCCCN)NC(=O)c2ccc(-c3ccc(Cl)cc3)cc2)c2ccc(O)c(c2)-c2cc(ccc2O)C[C@@H](C(=O)N[C@@H](C)C(=O)N(C)[C@@H](CCC(=O)O)C(N)=O)NC1=O [Compound 159] | – | 32 (≈ 33 µM) | – | 8 (≈ 8.25 µM) | 23 (≈ 23.7 µM) | – |
| C[C@@H]1NC(=O)[C@@H](N(C)C(=O)[C@H](CCCCN)NC(=O)c2ccc(-c3ccc(Cl)cc3)cc2)c2ccc(O)c(c2)-c2cc(ccc2O)C[C@@H](C(=O)N[C@@H](C)C(=O)C(=O)O)NC1=O [Compound 140] | 8 (≈ 9.35 µM) | 8 (≈ 9.35 µM) | 23 (≈ 26.9 µM) | – | – | – |
| CCCCc1ccc(-c2cccc(C(=O)N[C@@H](CCCCN)C(=O)N(C)[C@@H]3C(=O)N[C@@H](C)C(=O)N[C@H](C(=O)O)Cc4ccc(OCCN)c(c4)-c4cc3ccc4OCCN)c2)cc1 [Compound 288] | 0.25 (≈ 0.289 µM) | – | 0.5 (≈ 0.579 µM) | – | – | MIC [1, 6]: 0.13 µg/mL (≈ 0.15 µM) |
| CC(=O)[C@H](C)NC(=O)[C@@H]1Cc2ccc(O)c(c2)-c2cc(cc(C#CCN)c2OCCN)[C@H](N(C)C(=O)[C@H](CCCCN)NC(=O)c2ccc(-c3ccc(Cl)cc3)cc2)C(=O)N[C@@H](C)C(=O)N1 [Compound 226] | – | 4 (≈ 4.34 µM) | – | 0.25 (≈ 0.271 µM) | 4 (≈ 4.34 µM) | – |
| CCCCCCCCc1ccc(C(=O)N[C@@H](CN)C(=O)N(C)[C@@H]2C(=O)N[C@@H](C)C(=O)N[C@H](C(=O)O)Cc3ccc(OCCN)c(c3)-c3cc2ccc3OCCN)cc1 [Compound 300] | 0.13 (≈ 0.162 µM) | – | 0.5 (≈ 0.623 µM) | – | – | MIC [1, 6]: 0.023 µg/mL (≈ 0.0287 µM) |
| CCCCCCCCCCNCCC(=O)N[C@@H](CCCCN)C(=O)N(C)[C@@H]1C(=O)N[C@@H](C)C(=O)N[C@H](C(=O)N[C@@H](C)C(=O)N(C)[C@H]2CCNC2=O)Cc2ccc(O)c(c2)-c2cc1ccc2OCCN [Compound 187] | – | 23 (≈ 23.9 µM) | – | 0.5 (≈ 0.519 µM) | 3.7 (≈ 3.84 µM) | – |
| CC(=O)[C@H](C)NC(=O)[C@@H]1Cc2ccc(O)c(c2)-c2cc(cc(CN)c2O)[C@H](N(C)C(=O)[C@H](CCCCN)NC(=O)c2ccc(-c3ccccc3)cc2)C(=O)N[C@@H](C)C(=O)N1 [Compound 210] | – | 32 (≈ 39 µM) | – | 4 (≈ 4.88 µM) | 32 (≈ 39 µM) | – |
| CNCCCNCCOc1ccc2cc1-c1cc(ccc1O)C[C@@H](C(=O)N[C@@H](C)C(C)=O)NC(=O)[C@H](C)NC(=O)[C@H]2N(C)C(=O)[C@H](CCCCN)NC(=O)c1ccc(-c2ccc(Cl)cc2)cc1 [Compound 206] | – | 4 (≈ 4.26 µM) | – | 0.19 (≈ 0.202 µM) | 4 (≈ 4.26 µM) | – |
| C[C@@H]1NC(=O)[C@@H](N(C)C(=O)[C@H](CCCCN)NC(=O)c2ccc(-c3ccc(Cl)cc3)cc2)c2ccc(O)c(c2)-c2cc(ccc2O)C[C@@H](C(=O)N[C@@H](CO)C(=O)N(C)[C@@H](C)C(N)=O)NC1=O [Compound 199] | – | 64 (≈ 69 µM) | – | 2 (≈ 2.16 µM) | 10 (≈ 10.8 µM) | – |
| C[C@H](NC(=O)[C@@H]1CCCN1C(=O)[C@H](C)NC(=O)[C@@H]1Cc2ccc(O)c(c2)-c2cc(ccc2O)[C@H](N(C)C(=O)[C@H](CCCCN)NC(=O)c2ccc(-c3ccc(Cl)cc3)cc2)C(=O)N[C@@H](C)C(=O)N1)C(N)=O [Compound 179] | 16 (≈ 16.1 µM) | 64 (≈ 64.4 µM) | 32 (≈ 32.2 µM) | – | – | – |
| C[C@@H]1NC(=O)[C@@H](N(C)C(=O)[C@H](CCCCN)NC(=O)c2ccc(-c3ccc(Cl)cc3)cc2)c2ccc(O)c(c2)-c2cc(ccc2O)C[C@@H](C(=O)N[C@@H](C)C(=O)N(C)[C@@H](CC(=O)O)C(N)=O)NC1=O [Compound 158] | 8 (≈ 8.37 µM) | 64 (≈ 67 µM) | 23 (≈ 24.1 µM) | – | – | – |
